Experimental data: patent US20240217966A1, “PHARMACEUTICAL COMPOSITION CONTAINING GLP-1 RECEPTOR AGONIST HAVING FUSED RING” (Shionogi & Co., Ltd., priority 2021, published 2024)
Like-named read-outs stand apart in the source and are kept apart here.

Molecular target: T1, Human GLP-1 receptor (Homo sapiens, UniProt P43220)
T1 construct: expressed in transfected cells
Test: Measurement of GLP-1 receptor agonist activity (cAMP assay)
Assay type: cell-based
Description: Test Example 1: (Measurement of GLP-1 Receptor Agonist Activity)
Human GLP-1 receptor stably expressing cells (hGLP-1R/CHO-K1 cells) are cultured in an α-MEM medium (Sigma) containing 10% FBS (Hyclone), 2% GlutaMAX (Gibco), 1% G418 (Nacalai Tesque), and 1% Penicillin-Streptomycin Mixed Solution (Sigma) at 37° C. under 5% CO2 conditions, and recovered by treating a 10 fold diluted 5.0 g/l-trypsin/5.3 mmol/l-EDTA solution (Nacalai Tesque) and cryopreserved.
A DMSO solution containing the compound of the present invention or human GLP-1 (7-36) (Phoenix Pharmaceuticals) is dispensed into a 384-well microplate (Greiner) at 62.5 nL/well, and in addition, 400 μM Forskolin (Nacalai Tesque) is dispensed therein at 7.5 nL/well. Subsequently, the frozen GLP-1 R/CHO-K1 cells are thawed in a thermostatic bath at 37° C., suspended in HBSS buffer (GIBCO) containing 0.1% BSA (Sigma), 20 mM HEPES (GIBCO), 0.1 mM IBMX (Sigma), and 0.2 mM RO20-1724 (Calbiochem) at 2×10^4 cells/mL, and the cell suspension is added at 6 μL/well. The solution was incubated at 37° C. for 1 hour and intracellular cAMP concentration is measured using cAMP Gs dynamic kit (Cisbio) according to the protocol attached to the product. Specifically, cAMP-d2 and Anti-cAMP-Cryptate are each added in an amount of 3 μL/well, the mixture is incubated at room temperature for 1 hour, and time-resolved fluorescence is measured using PHERAstar (BMG Labtech).
The dilution concentration or the dilution solvent are changed as necessary.
The compounds of the present invention were tested essentially as described above.

[1] = CHO-K1, hGLP-1R/CHO-K1 cells, cAMP, 100% = human GLP-1 (7-36) at 2 nM, 0% = DMSO only, read-out: Emax(%)
[2] = hGLP-1R/CHO-K1 cells, cAMP increase, 37° C. 1 hour

T1 sequence (P43220 24-463): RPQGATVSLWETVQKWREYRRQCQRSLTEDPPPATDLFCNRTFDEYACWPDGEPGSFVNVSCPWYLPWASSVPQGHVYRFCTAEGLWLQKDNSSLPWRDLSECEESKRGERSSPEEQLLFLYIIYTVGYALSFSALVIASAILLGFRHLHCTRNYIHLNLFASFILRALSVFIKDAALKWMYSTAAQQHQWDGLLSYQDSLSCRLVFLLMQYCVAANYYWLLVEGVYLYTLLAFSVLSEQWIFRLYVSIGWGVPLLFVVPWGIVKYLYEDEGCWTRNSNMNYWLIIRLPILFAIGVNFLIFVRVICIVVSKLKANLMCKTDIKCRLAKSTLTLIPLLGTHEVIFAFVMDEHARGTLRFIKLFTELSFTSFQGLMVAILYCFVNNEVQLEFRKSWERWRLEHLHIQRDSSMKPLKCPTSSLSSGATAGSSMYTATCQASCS

Row | Structure (SMILES) | Emax [1] [%] | EC50 [2] [nM] | Emax (CHO-K1, maximum effect, cAMP increase in GLP-1 R/CHO-K1 cells, 2 nM human GLP-1 (7-36) = 100%, DMSO only = 0%, read-out: Emax) [%] | EC50 (cAMP increase in GLP-1 R/CHO-K1 cells, 2 nM human GLP-1 (7-36) = 100%, DMSO only = 0%) [nM]
1 | CC(c1nc2ccc(C(=O)O)cc2n1C[C@@H]1CCO1)N1CCc2cc(C(F)(F)F)c(OCc3ccc(Cl)cc3F)cc2C1 (mixture of isomers) [Compound I-032] | 146 | 92.7 |  | 
2 | CCC1c2cc(OCc3ccc(Cl)cc3F)c(C(F)(F)F)cc2CCN1Cc1nc2ccc(C(=O)O)cc2n1C[C@@H]1CCO1 (mixture of isomers) [Compound I-044] | 103 | 9.98 |  | 
3 | O=C(O)c1ccc2nc(CN3CCc4cc(C(F)(F)F)c(OCc5ccc(Cl)cc5F)cc4C3C(F)F)n(C[C@@H]3CCO3)c2c1 (mixture of isomers) [Compound I-066] | 124 | 8.72 |  | 
4 | O=C(O)c1ccc2nc(CN3CCc4cc(C(F)(F)F)c(OCc5ccc(Cl)cc5F)cc4C3CF)n(C[C@@H]3CCO3)c2c1 (mixture of isomers) [Compound I-133] | 112 | 4.5 |  | 
5 | Cc1cc2c(cc1OCc1ccc(Cl)cc1F)CN(Cc1nc3ccc(C(=O)O)cc3n1C[C@@H]1CCO1)CC2 [Compound I-001] | 75 | 47.5 |  | 
6 | CCn1cncc1Cn1c(CN2CCc3cc(C)c(OCc4ccc(Cl)cc4F)cc3C2)nc2ccc(C(=O)O)cc21 [Compound I-002] | 92.2 | 43.3 |  | 
7 | Cc1cc2c(cc1OCc1ccc(Cl)cc1F)C(=O)N(Cc1nc3ccc(C(=O)O)cc3n1C[C@@H]1CCO1)CC2 [Compound I-004] | 75.3 | 43.9 |  | 
8 | Cc1cc2ccc(Cc3nc4ccc(C(=O)O)cc4n3C[C@@H]3CCO3)cc2nc1OCc1ccc(Cl)cc1F [Compound I-006] | 86 |  |  | 
9 | O=C(O)c1ccc2nc(CN3CCc4cc(Br)c(OCc5ccc(Cl)cc5F)cc4C3)n(C[C@@H]3CCO3)c2c1 [Compound I-007] | 75.7 | 19.8 |  | 
10 | N#Cc1cc2c(cc1OCc1ccc(Cl)cc1F)CN(Cc1nc3ccc(C(=O)O)cc3n1C[C@@H]1CCO1)CC2 [Compound I-008] | 84.3 |  |  | 
11 | Cc1cc2c(cc1OCc1ccc(Cl)cc1F)CN(Cc1nc3ccc(C(=O)O)nc3n1C[C@@H]1CCO1)CC2 [Compound I-009] | 81.3 | 27.3 |  | 
12 | Cc1cc2c(cc1OCc1ccc(Cl)cc1F)C(=O)N(Cc1nc3ccc(C(=O)O)nc3n1C[C@@H]1CCO1)CC2 [Compound I-011] | 92.7 | 70.8 |  | 
13 | Cc1cc2c(cc1OCc1ccc(C(F)(F)F)cn1)CN(Cc1nc3ccc(C(=O)O)cc3n1C[C@@H]1CCO1)CC2 [Compound I-015] | 81.3 | 74.3 |  | 
14 | Cc1cc2c(cc1OCc1ccc(Cl)cc1)CN(Cc1nc3ccc(C(=O)O)cc3n1C[C@@H]1CCO1)CC2 [Compound I-016] | 79 | 50.3 |  | 
15 | Cc1cc2c(cc1OCc1ccc(C(F)(F)F)cc1F)CN(Cc1nc3ccc(C(=O)O)cc3n1C[C@@H]1CCO1)CC2 [Compound I-020] | 89 | 75.8 |  | 
16 | O=C(O)c1ccc2nc(CN3CCc4cc(Cl)c(OCc5ccc(Cl)cc5F)cc4C3)n(C[C@@H]3CCO3)c2c1 [Compound I-022] | 92.3 | 15 |  | 
17 | O=C(O)c1ccc2nc(CN3CCc4cc(C(F)(F)F)c(OCc5ccc(Cl)cc5F)cc4C3)n(C[C@@H]3CCO3)c2c1 [Compound I-023] | 86 | 4.56 |  | 
18 | O=C(O)c1ccc2nc(CN3CCc4cc(Cl)c(OCc5ccc(Cl)cc5F)cc4C3)n(C[C@@H]3CCO3)c2n1 [Compound I-024] | 92.7 | 26.4 |  | 
19 | CC1c2cc(OCc3ccc(Cl)cc3F)ccc2CCN1Cc1nc2ccc(C(=O)O)cc2n1C[C@@H]1CCO1 (some centres unmarked) [Compound I-025] |  |  | 78.7 | 109
20 | O=C(O)c1ccc2nc(CN3CCc4cc(C(F)(F)F)c(OCc5ccc(Cl)cc5F)cc4C3)n(C[C@@H]3CCO3)c2n1 [Compound I-026] | 85 | 6.35 |  | 
21 | O=C(O)c1ccc2nc(CN3CCc4cc(C(F)F)c(OCc5ccc(Cl)cc5F)cc4C3)n(C[C@@H]3CCO3)c2c1 [Compound I-027] | 80 | 9.48 |  | 
22 | Cc1cc2c(cc1OCc1ccc(Cl)cc1F)CN(Cc1nc3ncc(C(=O)O)cc3n1C[C@@H]1CCO1)CC2 [Compound I-028] | 84 | 78.6 |  | 
23 | Cc1cc2c(cc1OCc1ccc(F)cc1F)CN(Cc1nc3ccc(C(=O)O)cc3n1C[C@@H]1CCO1)CC2 [Compound I-029] | 81.3 | 94.6 |  | 

Row | Structure (SMILES) | Emax [1] [%] | EC50 [2] [nM] | Emax (CHO-K1, maximum effect, cAMP increase in GLP-1 R/CHO-K1 cells, 2 nM human GLP-1 (7-36) = 100%, DMSO only = 0%, read-out: Emax) [%] | EC50 (cAMP increase in GLP-1 R/CHO-K1 cells, 2 nM human GLP-1 (7-36) = 100%, DMSO only = 0%) [nM]
24 | O=C(O)c1ccc2nc(CN3CCc4cc(C(F)(F)F)c(OCc5ccc(Cl)cc5F)cc4C3=O)n(C[C@@H]3CCO3)c2c1 [Compound I-030] | 92.3 | 3.56 |  | 
25 | O=C(O)c1ccc2nc(CN3CCc4cc(C(F)(F)F)c(OCc5ccc(Cl)cc5F)cc4C3=O)n(C[C@@H]3CCO3)c2n1 [Compound I-031] | 91 | 8.92 |  | 
26 | O=C(O)c1cc2c(cc1F)nc(CN1CCc3cc(C(F)(F)F)c(OCc4ccc(Cl)cc4F)cc3C1)n2C[C@@H]1CCO1 [Compound I-034] | 103 | 8.71 |  | 
27 | C[C@@H]1c2cc(OCc3ccc(Cl)cc3F)c(C(F)(F)F)cc2CCN1Cc1nc2ccc(C(=O)O)cc2n1C[C@@H]1CCO1 [Compound I-036] | 66 | 99.5 |  | 
28 | C[C@H]1c2cc(OCc3ccc(Cl)cc3F)c(C(F)(F)F)cc2CCN1Cc1nc2ccc(C(=O)O)nc2n1C[C@@H]1CCO1 [Compound I-037] | 126 | 0.663 |  | 
29 | CS(=O)(=O)CCn1c(CN2CCc3cc(C(F)(F)F)c(OCc4ccc(Cl)cc4F)cc3C2)nc2ccc(C(=O)O)cc21 [Compound I-039] | 83.3 | 43.8 |  | 
30 | O=C(O)c1ccc2nc(CN3CCc4cc(C(F)(F)F)c(OCc5ccc(Cl)cc5F)cc4C3)n(C[C@@H]3CCCO3)c2c1 [Compound I-040] | 147 | 37.7 |  | 
31 | N#CCC1(Cn2c(CN3CCc4cc(C(F)(F)F)c(OCc5ccc(Cl)cc5F)cc4C3)nc3ccc(C(=O)O)cc32)CC1 [Compound I-041] | 102 | 45.2 |  | 
32 | O=C(O)c1ccc2nc(CN3CCc4cc(C(F)(F)F)c(OCc5ccc(Cl)cc5F)cc4C3)n(C[C@H]3CCO3)c2c1 [Compound I-042] | 95 | 73.8 |  | 
33 | O=C(O)c1ccc2nc(CN3CCc4cc(C(F)(F)F)c(OCc5ccc(Cl)cc5F)cc4C3)n(CC3(CF)CC3)c2c1 [Compound I-043] | 109 | 13.2 |  | 
34 | COCCn1c(CN2CCc3cc(C(F)(F)F)c(OCc4ccc(Cl)cc4F)cc3C2)nc2ccc(C(=O)O)cc21 [Compound I-045] | 93.7 | 81.5 |  | 
35 | O=C(O)c1ccc2nc(Cc3ccc4cc(C(F)(F)F)c(OCc5ccc(Cl)cc5F)nc4c3)n(C[C@@H]3CCO3)c2c1 [Compound I-046] | 118 |  |  | 
36 | O=C(O)c1ccc2nc(CN3CCc4cc(C(F)(F)F)c(OCc5ccc(OC(F)F)cc5F)cc4C3)n(C[C@@H]3CCO3)c2c1 [Compound I-047] | 105 | 4.3 |  | 
37 | O=C(O)c1ccc2nc(CN3CCc4cc(C(F)(F)F)c(OCc5ccc(Cl)cc5F)cc4C3)n(CC3(C(F)F)CC3)c2c1 [Compound I-048] | 130 | 75.4 |  | 
38 | CCn1cncc1Cn1c(CN2CCc3cc(C(F)(F)F)c(OCc4ccc(Cl)cc4F)cc3C2)nc2ccc(C(=O)O)cc21 [Compound I-049] | 95 | 5.03 |  | 
39 | Cn1nncc1Cn1c(CN2CCc3cc(C(F)(F)F)c(OCc4ccc(Cl)cc4F)cc3C2)nc2ccc(C(=O)O)cc21 [Compound I-050] | 67.7 | 238 |  | 
40 | O=C(O)c1ccc2nc(CN3CCc4cc(C(F)(F)F)c(OCc5ccc(Cl)cc5F)cc4C3)n(Cc3cccnc3)c2c1 [Compound I-051] | 87.3 | 24.2 |  | 
41 | O=C(O)c1ccc2nc(CN3CCc4cc(C(F)(F)F)c(OCc5ccc(Cl)cc5F)cc4C3)n(Cc3ncco3)c2c1 [Compound I-052] | 92 | 24.5 |  | 
42 | N#Cc1ccc(COc2cc3c(cc2C(F)(F)F)CCN(Cc2nc4ccc(C(=O)O)cc4n2C[C@@H]2CCO2)C3)c(F)c1 [Compound I-053] | 115 | 14.6 |  | 
43 | O=C(O)c1ccc2nc(CN3CCc4cc(C(F)(F)F)c(OCc5ccc(Cl)cc5F)cc4C3)n(C[C@@H]3CCO3)c2c1F [Compound I-054] | 104 | 0.948 |  | 
44 | O=C(NS(=O)(=O)C1CC1)c1ccc2nc(CN3CCc4cc(C(F)(F)F)c(OCc5ccc(Cl)cc5F)cc4C3)n(C[C@@H]3CCO3)c2c1 [Compound I-055] | 87.3 | 78.8 |  | 
45 | O=C(O)c1ccc2nc(CN3CCc4cc(C(F)(F)F)c(OCc5ccc(C(F)F)cc5F)cc4C3)n(C[C@@H]3CCO3)c2c1 [Compound I-056] | 110 | 6.04 |  | 
46 | O=C(O)c1ccc2nc(CN3CCc4cc(C(F)(F)F)c(OCc5ccc(Cl)c(F)c5F)cc4C3)n(C[C@@H]3CCO3)c2c1 [Compound I-059] | 112 | 29.9 |  | 
